The values that follow come from patent US20020019533A1, “PIPERIDINE DERIVATIVES AND ANTI-PLATELET AGENTS CONTAINING THE SAME” (priority 1994, published 2002).

The subject of one assay is platelet of SD rats. The assay can be described thus: In vitro anti-platelet effect: platelet aggregation induced by ADP + serotonin in rat platelet rich plasma. As to conditions: rat PRP, 0.5 μM or 0.8 μM ADP + serotonin, 50% inhibition of the serotonin-caused increase in aggregation. The class given is cell-based. The protocol: The anti-platelet effect due to the serotonin antagonistic activity was measured in vitro using the platelet of SD rats (body weight: about 300 to 400 g, male). Platelet rich plasma (PRP) and platelet poor plasma (PPP) were prepared from blood with 0.38% sodium citrate which was obtained from aorta abdominalis of a rat under diethyl ether anesthesia. The platelet concentration of PRP was adjusted to 5×10^8 platelets/ml by adding PPP. Then, the test compound dissolved in 0.4% aqueous ethanol was added, and the mixture was incubated at 37° C. for 3 minutes. The platelet aggregation induced by addition of 0.5 μM or 0.8 μM adenosine diphosphate (ADP)+ serotonin was measured as an increase in optical transmittance of PRP. The concentration of the test compound which inhibits 50% of the increase in platelet aggregation which is obtained with serotonin without a test compound was measured, and its negative logarithm (pIC50) was calculated.

The target of the next assay is T1, serotonin 2 receptor (Bos taurus, UniProt Q75Z89).
T1 construct: evaluated using a bovine cerebral cortex membrane sample; from tissue; host or cells: bovine cerebral cortex membranes
The assay can be described thus: Binding affinity to the serotonin 2 receptor, [3H]-ketanserin, bovine cerebral cortex membrane. The note with it: negative logarithm of Ki, 3 nM [3H]-ketanserin, 25° C., 30 minutes. As for the experimental part: The binding affinity to the serotonin 2 receptor was evaluated using a bovine cerebral cortex membrane sample. To 200 μl of a bovine membrane sample adjusted to 50 mg (wet weight) membrane/ml were added 200 μl of 3 nM [^3H]-ketanserin and 200 μl of a test compound solution prepared by dissolving a test compound in 1.7% ethanol, followed by mixing. The mixture was incubated at 25° C. for 30 minutes and filtered with a glass filter. The radioactivity trapped on the filter was measured with a liquid scintillation counter. The non-specific binding was defined by 10^−6 M LY53857. The concentration of the test compound which inhibits 50% of the specific binding of [^3H]-ketanserin (i.e., IC50 value) was obtained, and the Ki value was calculated in accordance with the following equation. The results are shown as the negative logarithm of the Ki value (i.e., pKi value). [formula]
In the equation, Ki indicates the dissociation constant and [L] indicates the concentration of [^3H]-ketanserin.

Assay [1] relates to platelet aggregation by serotonin. Description: In vivo anti-platelet effect after oral administration: ADP + serotonin induced aggregation of PRP taken 2 hours after dosing. Further details: species or system SD rats. As to conditions: 2 hours after administration, arabic gum group = 100%, n=3. As for the experimental part:
The anti-platelet effect due to the serotonin antagonistic activity was measured in vivo using SD rats (body weight: about 210 to 330 g, male). Two hours after the administration of the test compound, the rat was anesthetized with diethyl ether and platelet rich plasma (PRP) and platelet poor plasma (PPP) were prepared from blood with 0.38% sodium citrate which was obtained from aorta abdominalis of the rat. The platelet concentration of PRP was adjusted to 5×10^8 platelets/ml by adding PPP. Then, the PRP was incubated at 37° C. for 3 minutes, and platelet aggregation induced by addition of 0.7 μM adenosine diphosphate (ADP)+ serotonin was measured as an increase in optical transmittance of PRP. The aggregation occurred by addition of ADP alone and the maximum aggregation ratio by the simultaneous addition of ADP and serotonin were measured with respect to each group, and increase in aggregation caused by serotonin was calculated. The increase in aggregation caused by serotonin in the arabic gum administered group was taken as 100%, and the effect of the test compound was judged using as an index the increase in aggregation caused by the serotonin in the test compound-administered group (n=3).

Assay [2] concerns head twitch of mouse induced by 5-hydroxytryptophan (5HTP). The assay can be described thus: Inhibiting effect on head twitch of mouse induced by 5-hydroxytryptophan (5HTP). Format: in vivo, ICR mouse. The note with it: oral, 90 minutes before 5HTP (180 mg/kg i.p.); 50% inhibition of the number of head twitches. As for the experimental part: The serotonin antagonistic activity in the central nerve system was evaluated by measuring the inhibiting effect on head twitch of mouse induced by 5-hydroxytryptophan (5HTP) A test compound in an amount of 1, 3, 10, or 30 mg was respectively dissolved in 100 ml of water and, 90 minutes before 5HTP administration, the solution (10 ml/kg body weight) was orally administered to a ICR mouse (body weight: 27 to 32 g, male) fasted from the previous day. As a control, 5% arabic gum was used. Carbidopa (6 mg/kg) was subcutaneously administered and, after 15 minutes, 5HTP (180 mg/kg) was intraperitoneally administered. From the 15 minutes after 5HTP administration, the number of head twitches occurred within 2 minutes were counted. The concentration of the test compound which inhibits 50% of the number of head twitches in the 5% arabic gum administered group was obtained.

T1 sequence (Q75Z89 whole entry): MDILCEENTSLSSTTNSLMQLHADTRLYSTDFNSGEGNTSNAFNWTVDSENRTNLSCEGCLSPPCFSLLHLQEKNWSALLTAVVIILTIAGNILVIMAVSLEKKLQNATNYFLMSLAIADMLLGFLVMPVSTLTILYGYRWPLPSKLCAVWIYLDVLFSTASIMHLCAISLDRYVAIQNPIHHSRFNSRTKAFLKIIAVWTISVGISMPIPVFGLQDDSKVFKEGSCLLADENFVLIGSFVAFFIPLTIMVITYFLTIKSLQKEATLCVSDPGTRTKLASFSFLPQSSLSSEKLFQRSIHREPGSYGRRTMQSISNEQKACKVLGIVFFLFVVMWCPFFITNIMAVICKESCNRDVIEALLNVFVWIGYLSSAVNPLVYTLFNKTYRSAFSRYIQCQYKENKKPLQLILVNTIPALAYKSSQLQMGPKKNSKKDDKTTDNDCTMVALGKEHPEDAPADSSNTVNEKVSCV

Broadly, the pIC50 is −log10 of the IC50, conventionally taken in molar units. For the compound `NCCCC(=O)NCCN1CCC(=C2c3ccccc3C=Cc3ccccc32)CC1` [Compound 23], the pIC50 with platelet of SD rats came to 7.6.
The pKi is −log10 of the Ki, conventionally taken in molar units. Low values mean a large Ki, high ones a small Ki. With `CC(C)(C)OC(=O)N1CCC(C(=O)NCCN2CCC(=C3c4ccccc4C=Cc4ccccc43)CC2)CC1` [Compound 5], in the assay on platelet of SD rats, the pIC50 was 6.5. Moreover, the pKi on serotonin 2 receptor is recorded as 8.0.
On to `NC1(C(=O)NCCN2CCC(=C3c4ccccc4C=Cc4ccccc43)CC2)CCCCC1` [Compound 18], for which the “Increase in aggregation by serotonin” value in assay [1] (0.3 mg/kg oral) is 94.9%. Also, the pIC50 in the assay on platelet of SD rats is reported as 7.3. The compound also had a pKi on serotonin 2 receptor of 8.9.
Consider `NC1CCC(C(=O)NCCN2CCC(=C3c4ccccc4C=Cc4ccccc43)CC2)CC1` (centres unmarked) [Compound 12], for which the pIC50 in the assay on platelet of SD rats amounted to 6.6. Also, on serotonin 2 receptor, the negative logarithm of the Ki (pKi) is given as 8.6.
For `O=CNCCCC(=O)NCCN1CCC(=C2c3ccccc3C=Cc3ccccc32)CC1` [Compound 24], in that order: 7.2 and 9.8.
For `C1=Cc2ccccc2C(=C2CCN(CCCCN3CCSCC3)CC2)c2ccccc21` [Compound 42] the same measures were 6.6 and 8.7.
For the compound `CC(=O)NCC(=O)N1CCC(C(=O)NCCN2CCC(=C3c4ccccc4C=Cc4ccccc43)CC2)CC1` [Compound 8], in the assay on platelet of SD rats, the negative logarithm of the IC50 (pIC50) is recorded as 6.6. The compound further came in with a pKi at serotonin 2 receptor of 7.9.
With `O=C(NCCN1CCC(=C2c3ccccc3C=Cc3ccccc32)CC1)C1CCNCC1` [Compound 2], the pIC50 in the assay on platelet of SD rats was determined as 7.3. The same compound gave a pKi on serotonin 2 receptor of 8.6.
For `CC(=O)NC1(C(=O)NCCN2CCC(=C3c4ccccc4C=Cc4ccccc43)CC2)CCCCC1` [Compound 19], in that order: 6.4 and 8.3.
For `CC(C)(C)OC(=O)NC1(C(=O)NCCN2CCC(=C3c4ccccc4C=Cc4ccccc43)CC2)CCCCC1` [Compound 20] the same measures were 6.3 and 8.0.
Consider `CN(CCCC(=O)NCCN1CCC(=C2c3ccccc3C=Cc3ccccc32)CC1)C(=O)OC(C)(C)C` [Compound 29], for which the negative-log IC50 (pIC50) in the assay on platelet of SD rats came out at 7.1.
A word on the IC50: it is the point on the concentration scale where inhibition reaches its midpoint. A word on the Ki: it is a dissociation constant, usually derived from enzyme kinetics or from competition with a known ligand. As to `O=CN1CCC(C(=O)NCCN2CCC(=C3c4ccccc4C=Cc4ccccc43)CC2)CC1` [Compound 3], in assay [2], the ID50 is given as 0.39 mg/kg. For the same compound, the “Increase in aggregation by serotonin” value is 75.7% in assay [1] (0.1 mg/kg oral); 57.3% in assay [1] (0.3 mg/kg oral); 24.3% in assay [1] (1 mg/kg oral); 27% in assay [1] (3 mg/kg oral); −2.7% in assay [1] (10 mg/kg oral). Moreover, the 50% inhibitory concentration (IC50) in the assay with platelet of SD rats (Platelet) is 63.1 nM. This compound also showed a Ki at serotonin 2 receptor of 3.98 nM.
For `CC(C)(C)OC(=O)NCCCC(=O)NCCN1CCC(=C2c3ccccc3C=Cc3ccccc32)CC1` [Compound 26], the pIC50 with platelet of SD rats was determined as 7.2.
On to `CN(C)C(=O)NC1(C(=O)NCCN2CCC(=C3c4ccccc4C=Cc4ccccc43)CC2)CCCCC1` [Compound 22], for which, in the assay with platelet of SD rats, the pIC50 is 5.8. This compound yielded a negative-log Ki (pKi) on serotonin 2 receptor of 8.2.
For `O=CN1CCN(C(=O)NCCN2CCC(=C3c4ccccc4C=Cc4ccccc43)CC2)CC1` [Compound 11] the same measures were 7.0 and 8.8.
For `CC(=O)NCCCC(=O)NCCN1CCC(=C2c3ccccc3C=Cc3ccccc32)CC1` [Compound 25], in that order: 6.6 and 9.2.
In turn, `CC(C)(C)OC(=O)NCCCN1CCC(=C2c3ccccc3C=Cc3ccccc32)CC1` [Compound 31] displayed a pKi at serotonin 2 receptor of 8.8.
In the case of `O=CNC1(C(=O)NCCN2CCC(=C3c4ccccc4C=Cc4ccccc43)CC2)CCCCC1` [Compound 21], in the assay on platelet of SD rats, the pIC50 came out at 6.5. At serotonin 2 receptor, this compound yielded a pKi of 7.8.
Turning to `CN(C)C(=O)NCCCC(=O)NCCN1CCC(=C2c3ccccc3C=Cc3ccccc32)CC1` [Compound 27], the pIC50 in the assay on platelet of SD rats came to 6.9. Moreover, the negative-log Ki (pKi) on serotonin 2 receptor was 9.2.
Consider `O=C(NCCN1CCC(=C2c3ccccc3C=Cc3ccccc32)CC1)C1CCCCN1` (centres unmarked) [Compound 9], for which the “Increase in aggregation by serotonin” value in assay [1] (0.3 mg/kg oral) is listed as 57.3%. Besides, the negative-log IC50 (pIC50) in the assay on platelet of SD rats stood at 7.1. At serotonin 2 receptor, this compound registered a negative-log Ki (pKi) of 7.8.
For `C1=Cc2ccccc2C(=C2CCN(CCCCN3CCOCC3)CC2)c2ccccc21` [Compound 41] the same measures were 91.5%, 6.9 and 8.2.
Regarding `CCOC(=O)NCCN1CCC(=C2c3ccccc3C=Cc3ccccc32)CC1` [Compound 16], in the assay with platelet of SD rats, the negative logarithm of the IC50 (pIC50) turned out to be 7.6.
Same read-out and setting: the result for `O=CN1CCC(C(=O)NCCN2CCC(=C3c4ccccc4C=Cc4ccccc43)CC2)CC1` [Compound 6] reads 6.9.
Consider `CC(C)(C)OC(=O)NCCN1CCC(=C2c3ccccc3C=Cc3ccccc32)CC1` [Compound 17], for which the “Increase in aggregation by serotonin” value in assay [1] (0.3 mg/kg oral) is 50.7%. Moreover, the pIC50 in the assay with platelet of SD rats is given as 7.0.
As to `CN1CCC(=C2c3ccccc3C=Cc3ccccc32)CC1` [cycloheptadine, reference compound], the ID50 in assay [2] is on record as 0.12 mg/kg.
With `CNCCCC(=O)NCCN1CCC(=C2c3ccccc3C=Cc3ccccc32)CC1` [Compound 28], in the assay on platelet of SD rats, the pIC50 is 6.6.
